This note sets out measurements from PMC6917733 (Scientific Reports, 2019).

Test [1] has as its target EGFP-tagged human oxytocin receptor (human) (UniProt P30559).
Test [2] shares this target. This is another data set of the same source.
In test [3] the test system is V2R-mediated ERK 1/2 phosphorylation. The test is described as follows: Immunoblotting for ERK 1/2 phosphorylation in HEK293 cells expressing V2R. It counts as cell-based, human. The conditions noted are these: 1 µM peptide. Here is the method:
Immunoblotting was performed as described previously. Briefly, following an overnight incubation and 16 h starvation HEK293 cells transiently expressing human V2R were treated with 1 µM I8-arachnotocin or 1 µM VP prepared in DMEM. Cells were incubated with peptide ligands at 37 °C for indicated periods and 1 mL of chilled 1x phosphate-buffered saline were used to terminate the incubation. After freeze-thaw cycle in liquid nitrogen cells were solubilized in 100 µl of lysis buffer (50 mM HEPES, 0.5% NP-40 substitute, 50 mM glycerol-2-phosphate, 250 mM NaCl, 5 mM EDTA, 2 mM imidazole, 1 mM Na3VO4, 1 mM hepta-molybdate, pH adjusted to 7.0 with NaOH), freshly added 1 mM PMSF, one cOmplete Mini EDTA-free tablet (Roche) and one PhosSTOP tablet (Roche) and then centrifuged at 10,000 × g for 10 min. The bicinchoninic acid assay (Micro-BCA kit, Pierce) was used to measure total protein content. Phosphorylated and total ERK 1/2 were detected by immunoblotting on the same membrane using the same exposure method with an anti-phospho-p44/42 MAPK antibody (ERK 1/2) (1:1,000; Cell Signaling Technology) and an anti-p44/42 MAPK (ERK 1/2) (1:1,000; Cell Signaling Technology), respectively. Detection and quantification of resulting bands were executed by secondary antibodies (Donkey anti rabbit 680RD and […]) and Odyssey Clx (LiCor Biosciences) infrared fluorescent imaging system, respectively.
(In general: A western blot detects proteins with antibodies after separation by electrophoresis.)

The target in test [4] is T1, human OTR (Homo sapiens, UniProt P30559).
T1 sequence (P30559 1-389): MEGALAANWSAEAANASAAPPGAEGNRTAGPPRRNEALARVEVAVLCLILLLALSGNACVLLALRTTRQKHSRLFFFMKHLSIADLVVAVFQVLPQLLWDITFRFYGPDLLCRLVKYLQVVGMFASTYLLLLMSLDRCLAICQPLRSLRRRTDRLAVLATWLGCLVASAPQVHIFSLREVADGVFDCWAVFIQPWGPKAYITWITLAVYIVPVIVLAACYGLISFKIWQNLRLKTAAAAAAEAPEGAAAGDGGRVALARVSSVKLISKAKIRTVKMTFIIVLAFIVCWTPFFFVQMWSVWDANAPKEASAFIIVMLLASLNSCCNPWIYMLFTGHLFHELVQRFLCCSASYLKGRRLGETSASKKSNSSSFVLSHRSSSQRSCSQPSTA
Kind of test: β-arrestin-2 recruitment BRET at OTR. Background: Recruitment of arrestin is a read-out of receptor activation apart from second messengers.

Test [5] has as its target T2, human V2R (Homo sapiens, UniProt P30518). The test is described as follows: β-arrestin-1 recruitment BRET at V2R.
The target in test [6] is T3, human V1aR (Homo sapiens, UniProt P37288). Kind of test: β-arrestin-2 recruitment BRET at V1aR.
Test [7] concerns the target T4, human V1bR (Homo sapiens, UniProt P47901).
T4 sequence (P47901 1-424): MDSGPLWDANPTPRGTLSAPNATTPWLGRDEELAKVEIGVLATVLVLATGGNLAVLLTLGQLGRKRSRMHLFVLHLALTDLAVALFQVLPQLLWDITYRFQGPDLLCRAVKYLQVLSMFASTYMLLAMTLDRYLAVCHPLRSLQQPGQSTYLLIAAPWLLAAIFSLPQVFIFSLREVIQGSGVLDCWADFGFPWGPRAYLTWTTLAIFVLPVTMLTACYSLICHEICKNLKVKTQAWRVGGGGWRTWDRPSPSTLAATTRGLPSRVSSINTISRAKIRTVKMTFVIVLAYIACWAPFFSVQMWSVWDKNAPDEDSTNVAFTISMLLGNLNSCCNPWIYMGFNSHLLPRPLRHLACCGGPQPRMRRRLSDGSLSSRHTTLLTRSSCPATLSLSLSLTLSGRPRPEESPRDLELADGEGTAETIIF
Kind of test: β-arrestin-2 recruitment BRET at V1bR. The conditions noted are these: for EC50: β-arrestin-2 recruitment. Also noted: expressed in transfected cells; host or cells: HEK293. The test is classed as cell-based.

The target of test [8] is T2, human V2R. Kind of test: β-arrestin-2 recruitment BRET at V2R. It counts as cell-based. Also noted: expressed in transfected cells; host or cells: HEK293.
In test [9] the target is T3, human V1aR. The test is described as follows: Antagonist screen and Schild regression analysis (IP1) at V1aR.
The target in test [10] is T1, human OTR. Kind of test: IP1 accumulation (IP-One Gq assay), HEK293 cells expressing OTR.
Test [11] has as its target T3, human V1aR. Kind of test: IP1 accumulation (IP-One Gq assay), HEK293 cells expressing V1aR. To be noted: concentrations up to 10 µM.
Test [12] has as its target T4, human V1bR. The test is described as follows: IP1 accumulation (IP-One Gq assay), HEK293 cells expressing V1bR.
Test [13] has as its target T2, human V2R. Kind of test: cAMP accumulation (LANCE Ultra cAMP), HEK293 cells expressing V2R. In general terms: Cyclic AMP is a second messenger, typically raised through Gs and lowered through Gi signalling.
Test [14] addresses EGFP-tagged human vasopressin V1a receptor (human) (UniProt P37288).
Test [15] concerns the target EGFP-tagged human vasopressin V1b receptor (human) (UniProt P47901).
Test [16] has as its target EGFP-tagged human vasopressin V2 receptor (human) (UniProt P30518).
Test [17] has as its target EGFP-tagged human vasopressin V1b receptor (human) (UniProt P47901). The source holds these as a separate data set.
Test [18] concerns the target EGFP-tagged human vasopressin V2 receptor (human) (UniProt P30518). The source holds these as a separate data set.

Where “and” joins values, the source holds several entries; their conditions need not be identical. Identical values can stand only once. Bridge positions count the residues as written; N and C are the ends. Peptide text beside a SMILES is read from it.

Consider “oxytocin (from UniProt P01178 20-28) (peptide)”, for which, in [1], the IP1 accumulation (Gαq) in HEK293 cells expressing human OTR; EC50 turned out to be 12 nM. The molecule further displayed a β-arrestin-2 recruitment to OTR (BRET) against OT concentration; EC50 in test [2] of 170 nM.
On to `CC[C@H](C)[C@@H]1NC(=O)[C@H](Cc2ccccc2)NC(=O)[C@@H](N)CSSC[C@@H](C(=O)N2CCC[C@H]2C(=O)N[C@H](C(=O)NCC(N)=O)[C@@H](C)CC)NC(=O)[C@H](CC(N)=O)NC(=O)[C@H]([C@@H](C)O)NC1=O` [I8-arachnotocin] (H-CFITNCPIG-NH2; disulfide 1-6; N-terminus assumed), for which, in test [3] (1 min to 2 h), the “course of ERK 1/2 phosphorylation after the peak (late phase, 30–120 min)” value was “decreased over time”. The “time of peak ERK 1/2 phosphorylation” value in test [3] (HEK293 expressing human V2R) was 5 min. Besides, the maximum response (Emax) (usually the greatest response seen or fitted, relative to the assay's reference) was 32 ± 5% on human OTR [4]; 65 ± 5% at human V1bR [7]; 62 ± 6% at human OTR [10] (HEK293); 104 ± 8% at human V1bR [12] (HEK293); 99 ± 3% at human V2R [13] (HEK293). The EC50 was 5700 nM at human OTR [4] (EC50, β-arrestin-2 recruitment, OTR); 5750 nM at human OTR [4] (pEC50 (as logEC50 ± SEM), β-arrestin-2 recruitment, OTR); 1200 nM at human V1bR [7] (V1bR, read-out: EC50); 1200 nM on human V1bR [7] (V1bR, read-out: pEC50 (as logEC50 ± SEM) (converted)); more than 100000 nM at human V2R [8] (β-arrestin-1 or -2 recruitment, read-out: EC50 of β-arrestin-dependent signaling pathway); 790 nM at human OTR [10] (EC50, IP1 accumulation, G protein-mediated, OTR). In addition, the EC50 at human OTR [10] (pEC50 (as logEC50 ± SEM), IP1 accumulation, OTR) is 776 nM; on human V1bR [12] (EC50, IP1 accumulation, G protein-mediated, V1bR), 1200 nM; on human V1bR [12] (pEC50 (as logEC50 ± SEM), IP1 accumulation, V1bR), 1170 nM; at human V2R [13] (EC50, cAMP accumulation, G protein-mediated, V2R) it was 34 nM; on human V2R [13] (pEC50 (as logEC50 ± SEM), cAMP accumulation, V2R), 33.9 nM. For the same molecule, the β-arrestin-2 recruitment kinetics entry was “absent” at human OTR [4] (OTR, 10 µM ligand); “absent” at human V1aR [6] (10 µM ligand); “absent” at human V2R [8] (10 µM ligand). The “bias (method of Kenakin) compared to OT” value at human OTR [4] (OTR, G protein vs β-arrestin-2) is recorded as “did not detect differences”. Moreover, on human V2R [5] (10 µM ligand, time-dependent), the β-arrestin-1 recruitment kinetics result is reported as “failed to recruit β-arrestin-1”. For the same molecule, the β-arrestin-1 recruitment entry at human V2R [5] (up to 100 µM) is “no β-arrestin-1 recruitment”. The β-arrestin-2 recruitment result is recorded as “no I8-arachnotocin-induced β-arrestin-2 recruitment was detected” on human V1aR [6] (concentration up to 100 µM) and “did not recruit β-arrestin-2” at human V2R [8] (up to a concentration of 100 µM). Further, the “bias (method of Kenakin) compared to VP” value at human V1bR [7] (V1bR, G protein vs β-arrestin-2) is given as “did not detect differences”. Moreover, the “difference non-β-arrestin-dependent vs β-arrestin-dependent EC50” value at human V2R [8] was > 2,000 fold. Moreover, the “pA2 expressed as concentration” value at human V1aR [9] (Schild regression at V1aR) is 558 nM and ~ 558 nM. Moreover, the pA2 – broadly, a measure of antagonist potency on a negative log scale – at human V1aR [9] (Schild regression, VP curves in presence of 1, 3, 10 µM I8-arachnotocin) is 6.25 and 6.253. Besides, the Schild regression slope on human V1aR [9] (V1aR, VP as agonist) came to 1.28 ± 0.02. Besides, on human V1aR [9] (V1aR, dextral shift without affecting Emax), the type of antagonism result is “competitive antagonist”. Moreover, the “IP1 levels in antagonist screen” value at human V1aR [9] (VP (0.55 nM) in the presence of 1 and 10 µM I8-arachnotocin) is recorded as “lower IP1 levels than VP alone”. Further, the type of agonism entry is listed as “partial agonist” on human OTR [10] (OTR, second messenger signaling); “full agonist” on human V1bR [12] (V1bR, second messenger signaling); “full agonist” on human V2R [13] (V2R, second messenger signaling). Moreover, the “fold less potent compared to the endogenous peptide” value on human OTR [10] (OTR, vs OT) was 65 fold; at human V1bR [12] (V1bR, vs VP), 750 fold; at human V2R [13] (V2R, vs VP), 5,000 fold. In addition, the “activation of V1aR” value at human V1aR [11] is given as “No activation”.
In [1], I8-arachnotocin (peptide) yielded an IP1 accumulation (Gαq) in HEK293 cells expressing human OTR; EC50 of 790 nM and an IP1 accumulation (Gαq) in HEK293 cells expressing human OTR; Emax relative to OT of 62%. Moreover, in [14], the Schild regression of VP-induced IP1 accumulation at human V1aR in the presence of 1, 3 and 10 µM I8-arachnotocin (blocks VP at V1aR); pA2 was determined as 6.25; the Schild regression of VP-induced IP1 accumulation at human V1aR in the presence of 1, 3 and 10 µM I8-arachnotocin (blocks VP at V1aR); pA2 as a concentration stood at 558 nM. In [15], this molecule had an IP1 accumulation (Gαq) in HEK293 cells expressing human V1bR; EC50 of 1200 nM and an IP1 accumulation (Gαq) in HEK293 cells expressing human V1bR; Emax relative to VP of 104%. In [16], this molecule showed a cAMP accumulation (Gαs) in HEK293 cells expressing human V2R; EC50 of 34 nM and a cAMP accumulation (Gαs) in HEK293 cells expressing human V2R; Emax relative to VP of 99%. This molecule also gave a β-arrestin-2 recruitment to OTR (BRET) against I8-arachnotocin concentration; EC50 in [2] of 5700 nM. The molecule also gave a β-arrestin-2 recruitment to V1bR (BRET) against I8-arachnotocin concentration; EC50 in [17] of 1200 nM. In test [18], this molecule returned a non-β-arrestin-dependent signaling at V2R as restated in the discussion; EC50 of 50 nM and a β-arrestin-dependent signaling (β-arrestin recruitment) at V2R as restated in the discussion; EC50 of more than 100000 nM.
